Read-outs that look alike come from different tables or passages of the source.
Assays:
MCF-7 cells = test: MTT assay, antiproliferative activity, MCF-7 breast carcinoma cells; assay type: cell-based; settings: Homo sapiens, MCF7, 24 h, read-out: MCF7 IC50
Method: (§1) The anticancer activity of the OSe was performed using the MTT assay against liver (HepG2) and breast (MCF-7) carcinoma cells, as well as normal WI-38 cells following the reported method. Experimental details can be found in the Supplementary Materials Section S1.
(§2) Accordingly, the anticancer properties of the OSe hybrids were assessed against two cancer cell lines, i.e., HepG2 and MCF-7 cells. Furthermore, their corresponding cytotoxicity was also estimated against the immortalized lung WI-38 fibroblasts employing the MTT assay. The Adriamycin cancer drug was used as the positive control.
(§3) 1.1. The biological assays
(§4) 1.1.1. The anticancer activity
(§5) The breast adenocarcinoma (MCF-7), Hepatocellular carcinoma (HEPG-2), and normal fibroblast (WI-38) cells were obtained from ATCC via Holding company for biological products and vaccines (VACSERA), Cairo, Egypt. The reagents […] medium, MTT, DMSO, and fetal bovine serum was obtained from Sigma Aldrich. Dulbecco’s modified Eagle’s medium was used as the culture medium for the cells, and the cytotoxicity was evaluated using the reported MTT assay. Doxorubicin was used as the positive reference, and the IC50 values were obtained from the corresponding dose-response curve.
(§6) This colorimetric assay is based on converting the yellow tetrazolium bromide (MTT) to a purple formazan derivative by mitochondrial succinate dehydrogenase in viable cells. Cell lines were cultured in […] medium with 10% fetal bovine serum. Antibiotics added were 100 units/ml penicillin and 100µg/ml streptomycin at 37 C in a 5% Co2 incubator. The cell lines were seeded in a 96-well plate at a density of 1.0x10^4 cells/well. at 37 C for 48 h under 5% […]
(§7) Finally, dimethyl sulfoxide (DMSO) in the volume of 100 µl is added to each well to dissolve the purple formazan formed. […]

HepG2 cells = test: MTT assay, antiproliferative activity, HepG2 liver carcinoma cells; assay type: cell-based; settings: Homo sapiens, read-out: HepG2 IC50
Method: as §1
Accordingly, the anticancer properties of the OSe hybrids were assessed against two cancer cell lines, i.e., HepG2 and MCF-7 cells. Furthermore, their corresponding cytotoxicity was also estimated against the immortalized lung WI-38 fibroblasts employing the MTT assay. The Adriamycin cancer drug was used as the positive control. The concentration inhibition, 50%, needed to kill half of the cells (IC50) was estimated from (concentration-response plots) and tabulated in Table 1.
as §3, §4, §5, §6
Finally, dimethyl sulfoxide (DMSO) in the volume of 100 µl is added to each well to dissolve the purple formazan formed. The colorimetric assay is measured and recorded at an absorbance of 570 nm using a plate reader (EXL 800, USA). […]

WI-38 cells = test: MTT assay, cytotoxicity against normal WI-38 fibroblasts; assay type: cell-based; settings: Homo sapiens, WI-38, 24 h, read-out: WI38 IC50
Method: as §1, §2, §3, §4, §5, §6, §7

Staphylococcus aureus [1] = test: Agar well diffusion assay, S. aureus; assay type: cell-based; settings: ratio of inhibition zone to that of positive control
Method: (§8) According to the reported method, the OSe agents’ antimicrobial properties were estimated against Staphylococcus aureus (S. aureus), Escherichia coli (E. coli), and Candida albicans (C. albicans) microbial strains using the agar well diffusion assay. In addition, the MICs (in […]) were also recorded via the microdilution method following the reported procedure. Experimental details can be found in the Supplementary Materials Section S1 [16, 18].
(§9) The promising anticancer activities manifested by the OSe compounds encourage us to further evaluate their respective antimicrobial activity against a panel of gram-negative bacteria (e.g., E. coli) and the gram-positive bacteria (e.g., S. aureus) as well as a fungal strain (C. albicans) using the method of agar diffusion. The clotrimazole antifungal and the ampicillin antibacterial drugs were used as the positive controls. […]
(§10) 1.1.2. The antimicrobial activity
(§11) The antimicrobial activities of the OSe compounds were evaluated against C. albicans yeast as well as E. coli gram-negative and S. aureus gram-positive bacteria employing the agar well diffusion assay [ 4 ] .
(§12) Briefly, a concentration of 1 mM was prepared for each compound by dissolving in DMSO.
(§13) Paper discs of standard size […] were sterilized in an autoclave and soaked in 9 µL of the test compounds, and placed in the Petri dishes, which in turn contain a nutrient media (agar 9 g, peptone 5 g, and beef extract 3 g) seeded with the dedicated strain. Incubation lasted for 13 h at 36 0C. Experiments were replicated three times and the antifungal clotrimazole and antibiotic ampicillin were used as standards. The % activity index for the complex was determined and depicted in table 2. […]

Candida albicans [2] = test: Agar well diffusion assay, C. albicans; assay type: cell-based; settings: ratio of inhibition zone to that of positive control
Method: as §8, §9, §10, §11, §12, §13

Staphylococcus aureus [3] = test: Agar well diffusion assay, S. aureus; assay type: cell-based; settings: read-out: S. aureus ZID
Candida albicans [4] = test: Agar well diffusion assay, C. albicans; assay type: cell-based; settings: read-out: C. Albicans ZID
Escherichia coli [5] = test: Agar well diffusion assay, E. coli; assay type: cell-based; settings: ratio of inhibition zone to that of positive control
Method: as §8, §9, §10, §11, §12, §13

Escherichia coli [6] = test: Agar well diffusion assay, E. coli; assay type: cell-based; settings: read-out: E. coli ZID
[7] = DPPH radical scavenging bioassay; settings: 200 µL, 1 mM in MeOH, DPPH 400 µL, 30 min, 517 nm
Excerpt: The DPPH and ABTS in vitro bioassays were used to assess the OSe antioxidant activities following the reported method. Experimental details can be found in the Supplementary Materials Section S1.
The redox modulation activities of the OSe compounds were extensively explored over the last decade owing to their chemopreventive and antioxidant potency. The latter is usually investigated by the ABTS and DPPH in vitro tests employing vitamin C as the positive control. The OSe compound’s magnitude estimated the antioxidant potential to decolorize the distinctive colors of the DPPH^. and ABTS^. radicals at 517 nm and 734 nm, respectively (Figure 2).
Figure 2 The OSe compounds redox activities assessment using the ABTS and DPPH experiments. All tests are mean ± SD. ABTS experiment: absorbance was followed at 734 nm for OSe compounds (50 µL, 1 mM in MeOH) and ABTS solution (60 µL). DPPH experiment: Absorbance was monitored after 30 min at 517 nm for OSe compounds (200 µL, 1 mM in MeOH) and DPPH (400 µL). […]
1.1.3. The antioxidant activity
1.1.3.1. The DPPH bioassay
The hydrogen atom or electron donation ability of the corresponding compounds was measured by estimating the bleaching of the purple color of a methanolic solution of DPPH [5]. This spectrophotometric assay uses stable DPPH. reagent. The sample was prepared by adding […] of the OSe compounds (1 mM in methanol) to […] DPPH in methanol. After 30 min of incubation in the dark, the absorbance was read against a blank at […]. Ascorbic acid (vitamin C) and ebselen were used as standard antioxidants (positive control). A blank sample was run without DPPH. A negative control sample was run using methanol instead of the sample. The radical scavenging activity was […]
using the following equation:
Inhibition%= (Ablank-Asample)/(Ablank)*100. […]

SMILES	IC50 (MCF-7 cells)	IC50 (HepG2 cells; HepG2, 24 h)	IC50 (WI-38 cells)	S. aureus IA% (activity index) (Staphylococcus aureus [1])	C. Albicans IA% (activity index) (Candida albicans [2])	melting point	zone of inhibition at 20 µM (Staphylococcus aureus [3])	zone of inhibition at 20 µM (Candida albicans [4])	E. coli IA% (activity index) (Escherichia coli [5])	zone of inhibition at 20 µM (Escherichia coli [6])	DPPH radical scavenging activity [7]	IC50 (HepG2 cells; MTT, HepG2 cells, 24 h incubation)
COC(=O)c1cc([Se][Se]c2ccc(NC=O)c(C(=O)OC)c2)ccc1NC=O [Compound 7, dimethyl 5,5′-diselanediylbis(2-formamidobenzoate)]	79 ± 4.2 µM	83.7 ± 4.4 µM	45.7 ± 2.7 µM	14.3%	16.7%	195 to 196 °C	3 mm	4 mm	–	–	–	–
COC(=O)c1cc([Se][Se]c2ccc(NC(=O)CCl)c(C(=O)OC)c2)ccc1NC(=O)CCl [Compound 9, dimethyl 5,5′-diselanediylbis(2-(2-chloroacetamido) benzoate)]	> 100 µM	> 100 µM	> 100 µM	–	–	150 to 152 °C	–	–	–	–	–	–
COC(=O)c1cc([Se][Se]c2ccc(NC(=O)COc3ccccc3)c(C(=O)OC)c2)ccc1NC(=O)COc1ccccc1 [Compound 10, dimethyl 5,5′-diselanediylbis(2-(2-phenoxyacetamido) benzoate)]	53.5 ± 3 µM	81.5 ± 4.2 µM	38.2 ± 2.5 µM	38.1%	20.8%	152 to 154 °C	8 mm	5 mm	21.7%	5 mm	–	–
COC(=O)c1cc([Se][Se]c2ccc(NC(=O)CCC(=O)O)c(C(=O)OC)c2)ccc1NC(=O)CCC(=O)O [Compound 11]	55.1 ± 3.2 µM	43.7 ± 2.6 µM	> 100 µM	33.3%	41.7%	150 to 152 °C	7 mm	10 mm	21.7%	5 mm	–	–
COC(=O)c1cc([Se]Cc2ccccc2)ccc1N [Compound 15, methyl 2-amino-5-(benzylselanyl) benzoate]	12.8 ± 0.9 µM	6.48 ± 0.4 µM	25.8 ± 1.8 µM	85.7%	91.7%	78 °C	18 mm	22 mm	73.9%	17 mm	89%	–
COc1cccc2c1C(=O)c1c(O)c3c(c(O)c1C2=O)C[C@@](O)(C(=O)CO)C[C@@H]3O[C@H]1C[C@H](N)[C@H](O)[C@H](C)O1 [Adriamycin, reference compound]	–	–	–	–	–	–	–	–	–	–	–	4.5 ± 0.2 µM
COC(=O)c1cc([Se][Se]c2ccc(NC(=O)/C=C\C(=O)O)c(C(=O)OC)c2)ccc1NC(=O)/C=C\C(=O)O [Compound 13, (2Z,2’Z)-4,4′-((diselanediylbis(2-(methoxycarbonyl)-4,1-phenylene))bis(azanediyl)) bis (4-oxobut-2-enoic acid)]	76.2 ± 4 µM	78.5 ± 3.9 µM	47 ± 2.8 µM	19.0%	20.8%	149.5 to 151 °C	4 mm	5 mm	–	–	–	–
COC(=O)c1cc([Se][Se]c2ccc(NC(C)=O)c(C(=O)OC)c2)ccc1NC(C)=O [Compound 8, dimethyl 5,5′-diselanediylbis(2-acetamidobenzoate)]	> 100 µM	> 100 µM	> 100 µM	–	–	186 to 187 °C	–	–	–	–	–	–
COC(=O)c1cc([Se][Se]c2ccc(N3C(=O)CCC3=O)c(C(=O)OC)c2)ccc1N1C(=O)CCC1=O [Compound 12, dimethyl 5,5′-diselanediylbis(2-(2,5-dioxopyrrolidin-1-yl) benzoate]	> 100 µM	> 100 µM	> 100 µM	–	–	100 °C	–	–	–	–	–	–
COC(=O)c1cc([Se]CC(=O)Nc2ccccc2)ccc1N [Compound 16, methyl 2-amino-5-((2-oxo-2-(phenylamino)ethyl)selanyl) benzoate]	50.8 ± 2.9 µM	30.6 ± 2.4 µM	71.9 ± 4.1 µM	42.8%	54.2%	126 to 128.5 °C	9 mm	13 mm	26.1%	6 mm	–	–
